According to patent publication US9084423B2, “Inhibition of bacterial biofilms with imidazole derivatives” (North Carolina State University, priority 2007, dated 2015):
Where a name gives a salt, the structure may show the parent alone.

What was measured:
Type in all cases: cell-based, Pseudomonas aeruginosa
[1] = test system: P. aeruginosa strain PAO1; test: Static biofilm inhibition assay (crystal violet), PAO1; conditions: Pseudomonas aeruginosa, PAO1; for IC50: inhibition of biofilm formation, crystal violet, 24 hours
Protocol: Each compound was assayed for the ability to inhibit the formation of P. aeruginosa biofilms. […] We employed a standard crystal violet reporter assay to assess for the formation of biofilms. Briefly, P. aeruginosa strain PAO1 was allowed to form biofilms in a multi-well plate in the absence or presence of our compounds. Planktonic (or free growing) bacteria were then removed, wells washed vigorously, and crystal violet added. Crystal violet stains the remaining bacteria which, following ethanol solubilization, can be quantitated by spectrophotometry (A540).
(§1) An overnight culture of the bacterial strain being screened against was subcultured at an OD600 of 0.1 into the media used (listed below with strain) and then pipetted into test tubes along with a predetermined concentration of our compound of interest. Test tubes were then poured into tilted Petri dishes and 100 μL of media, strain and compound were then transferred into 96-well PVC microtiter plates. These microtiter plates were then covered, wrapped in Saran™ Wrap polyethylene film (S.C. Johnson, Racine, Wis.) and allowed to incubate at 37° C. for 24 hours. After that time, the medium was discarded and the plates were thoroughly washed with water. The remaining biofilm that was formed during incubation was stained with 100 μL of a 0.1% crystal violet solution and allowed to incubate at room temperature for 30 minutes. After 30 minutes, the crystal violet was discarded and washed thoroughly again with water. The remaining crystal violet that had stained the biofilm in the inside walls of the 96-well PVC plates was solubilized with 200 μL of 95% ethanol. The quantification of biofilm formation was accomplished by transferring 125 μL of the ethanol solution into a polystyrene microtiter dish, which was read by spectrophotometry (A540). After the background has been subtracted from each row, a percent inhibition can be calculated by dividing the amount of crystal violet in wells that contained compound by the amount of crystal violet in wells that contained bacteria only. Each concentration reported during the course of this study was repeated two to five times with each of those biofilm inhibition assays being done in 6 replicates each.
(§2) An overnight culture of the wild type strain was subcultured at an OD600 of 0.10 into LBNS along with a predetermined concentration of the small molecule to be tested for biofilm inhibition. Samples were then aliquoted (100 μL) into the wells of a 96-well PVC microtiter plate. The microtiter dishes were covered and sealed before incubation under stationary conditions at 37° C. for 24 hours. After that time, the medium was discarded and the plates thoroughly washed with water. The wells were then inoculated with a 0.1% aqueous solution of crystal violet (100 μL) and allowed to stand at ambient temperature for 30 minutes. Following another thorough washing with water the remaining stain was solubilized with 200 μL of 95% ethanol. Biofilm inhibition was quantitated by measuring the OD540 for each well by transferring 125 μL of the ethanol solution into a fresh polystyrene microtiter dish for analysis.
(§3) To examine each compound's ability to inhibit the formation of Pseudomonas aeruginosa biofilms, PAO1 and PA14 were employed as the target bacterial strains using a crystal violet reporter assay. G. A. O'Toole, R. Kolter, Mol. Microbiol. 1998, 28, 449. All compounds were initially screened at 500 μM for anti-biofilm activity.
An overnight culture of the wild type strain was subcultured at an OD600 of 0.10 into LBNS along with a predetermined concentration of the small molecule to be tested for biofilm inhibition. Samples were then aliquoted (100 μL) into the wells of a 96-well PVC microtiter plate. The microtiter dishes were covered and sealed before incubation under stationary conditions at 37° C. for 24 hours, After that time, the medium was discarded and the plates thoroughly washed with water. […]

P. aeruginosa PA14 = test: Static biofilm inhibition assay (crystal violet), PA14; conditions: Pseudomonas aeruginosa; for inhibition at 500 µM: PA14, 24 h; for IC50: PA14, inhibition of biofilm formation, crystal violet, 24 hours
Protocol: as §1, §2, §3
as §2, with “for 24 hours, After that” for “for 24 hours. After that”, “violet (100 pt) and allowed” for “violet (100 μL) and allowed”

[2] = test system: planktonic P. aeruginosa PAO1; test: Planktonic growth (growth curves, colony counts), PAO1; conditions: growth curves and/or colony counts, presence vs absence of compound, at IC50 or as stated
Text: To answer the question of whether the compounds were antibiotics or true inhibitors of biofilm formation, we tested the ability of both compounds to inhibit growth of planktonic P. aeruginosa. Growth was quantitated by measuring optical density at 600 nm. […]

[3] = test system: planktonic P. aeruginosa PA14; test: Planktonic growth (growth curves, colony counts), PA14; conditions: growth curves and/or colony counts, presence vs absence of compound, at IC50 or as stated

IC50 [1] [µM] | IC50 (P. aeruginosa PA14) [µM] | Compound | inhibition at 500 µM [1] [%] | inhibition at 500 µM (P. aeruginosa PA14) [%] | microbicidal effect on PAO1 planktonic growth (in words) [2] | microbicidal effect on PA14 planktonic growth (in words) [3]
165 ± 23 | 224 ± 22 | Cl.Cn1c(C(=O)NCCc2c[nH]c(N)n2)cc(Br)c1Br [Compound 27, 4,5-dibromo-1-methyl-pyrrole-2-carboxylic acid [2-(2-amino-1H-imidazol-4-yl)-ethyl]-amide hydrochloride] | > 95 | > 95 | no microbicidal activity | no microbicidal activity
150 ± 17 | 126 ± 17 | Cl.Cn1c(C(=O)NCCCCc2c[nH]c(N)n2)cc(Br)c1Br [Compound 30, 4,5-dibromo-1-methyl-pyrrole-2-carboxylic acid [4-(2-amino-1H-imidazol-4-yl)-butyl]-amide hydrochloride] | > 95 | > 95 | no microbicidal activity | no microbicidal activity
 |  | Cn1cc(Br)cc1C(=O)NCCc1c[nH]cn1 [Compound 39, 4-bromo-1-methyl-pyrrole-2-carboxylic acid [2-(1H-imidazol-4-yl)-ethyl]amide hydrochloride] | 37 | 21 |  | 
277 ± 35 | 203 ± 25 | Cl.Cn1c(C(=O)NCCc2c[nH]cn2)cc(Br)c1Br [Compound 40, 4,5-dibromo-1-methyl-pyrrole-2-carboxylic acid [2-(1H-imidazol-4-yl)-ethyl]-amide hydrochloride] | 73 | 82 | not inhibiting biofilm development through microbicidal activity | not inhibiting biofilm development through microbicidal activity
 |  | O=C(NCCCc1c[nH]c(=S)[nH]1)c1ccc[nH]1 [Compound 43, 1H-pyrrole-2-carboxylic acid [3-(2-thioxo-2,3-dihydro-1H-imidazol-4-yl)-propyl]-amide] | 39 | 33 |  | 
 |  | O=C(NCCCc1c[nH]c(=S)[nH]1)c1cc(Br)c[nH]1 [Compound 44, 4-bromo-1H-pyrrole-2-carboxylic acid [3-(2-thioxo-2,3-dihydro-1H-imidazol-4-yl)-propyl]-amide] | 28 | 14 |  | 
 |  | O=C(NCCCc1c[nH]c(=S)[nH]1)c1cc(Br)c(Br)[nH]1 [Compound 45, 4,5-dibromo-1H-pyrrole-2-carboxylic acid [3-(2-thioxo-2,3-dihydro-1H-imidazol-4-yl)-propyl]-amide] | 61 | 56 |  | 
 |  | O=C(NCCCc1c[nH]c(=S)[nH]1)c1cc(Cl)c(Cl)[nH]1 [Compound 46, 4,5-dichloro-1H-pyrrole-2-carboxylic acid [3-(2-thioxo-2,3-dihydro-1H-imidazol-4-yl)-propyl]-amide] | 41 | 38 |  | 
 |  | Cn1cccc1C(=O)NCCCc1c[nH]c(=S)[nH]1 [Compound 47, 1-methyl-pyrrole-2-carboxylic acid [3-(2-thioxo-2,3-dihydro-1H-imidazol-4-yl)-propyl]-amide] | 27 | 36 |  | 
 |  | Cn1cc(Br)cc1C(=O)NCCCc1c[nH]c(=S)[nH]1 [Compound 48, 4-bromo-1-methyl-pyrrole-2-carboxylic acid [3-(2-thioxo-2,3-dihydro-1H-imidazol-4-yl)-propyl]-amide] | 41 | 57 |  | 
 |  | Cn1c(C(=O)NCCCc2c[nH]c(=S)[nH]2)cc(Br)c1Br [Compound 49, 4,5-dibromo-1-methyl-pyrrole-2-carboxylic acid [3-(2-thioxo-2,3-dihydro-1H-imidazol-4-yl)-propyl]-amide] | 46 | 38 |  | 
